These results are taken from paper PMC8708491 (Vaccines, 2021).

Where no end group is shown, it is not given here.

Data set [1] addresses endo-proteinase Glu-C V8 (Staphylococcus aureus, UniProt P0C1U8). To be noted: 100 mM Tris-HCl pH 7.8 (carbonate buffer in Figure 6); 0.5 mg/mL; read-out HPLC (fragment MOG37–55 at 13.55 min), MS and UPLC-MS/MS. As to the method:
This cleavage experiment aimed to identify fragment MOG37–55 by HPLC analysis. […] In particular, endo-proteinase Glu-C V8, a proteolytic serine, sequencing grade from Staphylococcus aureus V8, (Roche, lot no. 32228800) was used. This enzyme acts at the carboxylic acid of the Glu amino acid. […] The same experiment of enzymatic hydrolysis with a glutamate enzyme was also carried out with oxidized mannan–(KG)5-MOG35–55 conjugate.

The nature of data set [2]: Polarity by reversed-phase HPLC retention. The format is physicochemical. To be noted: chromatographic, RP-18 (C18) column, gradient 5–100% AcN in 30 min, 0.08% TFA, 214 nm. Here is the method: Figure 8 HPLC analysis of peptide (KG)5-MOG35–55 (214 nm) and oxidized mannan–(KG)5-MOG35–55. HPLC analysis of (A) (KG)5-MOG35–55 and (B) oxidized mannan–(KG)5-MOG35–55 solution after 3 years (214 nm) showing the stability of the conjugate. […] The oxidized mannan–(KG)5-MOG35–55 conjugate was very polar, and it appeared at an earlier retention time compared to the less polar (KG)5-MOG35–55 peptide. The HPLC method used: gradient 5–100% AcN in 30 min.

Data set [3] deals with endo-proteinase Glu-C V8, sequencing grade from Staphylococcus aureus V8. Description: endo-proteinase Glu-C V8 in 100 mM Tris-HCL, pH 7.8.
Data set [4] deals with patients with secondary progressive MS. To be noted: cited from earlier work. As to the method:
The study was performed for the first time using a peptide epitope on patients with secondary progressive MS (MAESTRO-01 study).

Data set [5] deals with adenocarcinoma patients. To be noted: cited from earlier work. The source says:
We have shown that mannan, a poly-mannose carbohydrate isolated from the cell wall of yeast when conjugated to cancer proteins, induces Th1 or Th2 immune responses depending on the mode of conjugation and has therapeutic benefits against cancer when conjugated to peptides, proteins, and DNA. […] In addition, mannan has the added advantage, as it stimulates dendritic cells via Toll-like receptor 4. In MS, mannan conjugated to linear o ...

The conditions of data set [6]: old lab batches kept at 5 ± 3 °C since 2014; HPLC (data not shown). As to the method: We used a Waters 2695 HPLC (Alliance) system using a photodiode array detector. A Lichrosorb RP-18 reversed-phase analytical column (C18 […], 4.6 × 50 mm PIN 186003034). […] The reaction of oxidized mannan with a (KG)5-MOG35–55 peptide was monitored by HPLC. […] The samples were kept for 3 years and assessed by HPLC for stability.
The stability of the oxidized mannan–(KG)5-MOG35–55 conjugate was analyzed after 3 years of storage.

Data set [7] deals with experimental autoimmune encephalomyelitis (EAE). The settings on record: cited from earlier work. The source says: Several biological studies, including in vitro and in vivo assays, have been carried out to evaluate the effects of mannan–myelin peptide conjugates. […] In another study, mannan–MOG35–55 reversed experimental autoimmune encephalomyelitis, inducing a pe ...

Data set [8] relates to CD4 T cells. To be noted: cited from earlier work. From the text:
The induction of immunological tolerance through the action of dendritic cells is a newly introduced strategy for the treatment of MS. Peripheral blood mononuclear cells (PBMCs) were isolated from patients with relapsing-remitting (RR-MS) and age- and sex-matched healthy individuals (controls).

The mark [9] stands for this setting: another study, wording is the title of ref 20.
The mark [10] stands for this setting: compared to EAE controls, 19 (wording matches ref 30).

Chain of endo-proteinase Glu-C V8 (P0C1U8 69-336): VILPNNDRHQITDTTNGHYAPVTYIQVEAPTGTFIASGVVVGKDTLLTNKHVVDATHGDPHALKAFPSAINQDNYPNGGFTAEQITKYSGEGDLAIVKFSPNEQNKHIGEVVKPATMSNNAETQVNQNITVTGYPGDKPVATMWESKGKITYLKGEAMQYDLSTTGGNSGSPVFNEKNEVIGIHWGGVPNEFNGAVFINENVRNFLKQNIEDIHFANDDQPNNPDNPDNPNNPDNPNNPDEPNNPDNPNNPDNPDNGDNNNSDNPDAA

As to “(KG)5-MOG35–55: peptide MOG35–55 synthesized with (KG)5 at its N-terminus (MEVGWYRSPFSRVVHLYRNGK; N-terminal (KG)5 linker; UniProt Q61885 63-83, looked up, fragment)”, the “Cleavage by endo-proteinase Glu-C” value in data set [1] was “cleavage of the peptide”. Moreover, the “Polarity from HPLC retention time” value in data set [2] is “less polar”.

KGKGKGKGKGMEVGWYRPPFSRVVHLYRNGK: the cleaved bond entry in data set [3] is “Glu36-Val37”.

With “MBP82–98: myelin basic protein epitope peptide clinically tested in phases I, II and III (PADPGSRPHLIRLFSRD; dirucotide; UniProt P02686 82-98, looked up, fragment)”, the “Safety in clinical trials” value in data set [4] (phases I, II and III) is listed as “safe”. For the same substance, the “Efficacy in clinical trial” value in data set [4] (secondary progressive MS, MAESTRO-01 study, trial suspended) is on record as “lack of efficacy”.

In the case of “mannan conjugated to MUC1 protein: mannan conjugated to MUC1 cancer protein, tested in humans”, the Clinical responses entry in data set [5] (adenocarcinoma patients) is “clinical responses”. In addition, in data set [5] (in humans), the Cancer recurrence result is recorded as “protection against cancer recurrence” and the Immune responses entry is listed as “induces immune responses”.

As to “oxidized mannan–(KG)5-MOG35–55: MOG35–55 peptide conjugated to oxidized mannan via the (KG)5 linker at its N-terminus (KGKGKGKGKGMEVGWYRSPFSRVVHLYRNGK; also: conjugated to oxidized mannan via Schiff base on linker lysine side chains; UniProt Q61885 63-83, looked up, fragment)”, the “Stability of the conjugate: fragmentation or detachment” value in data set [6] is “did not show any signs of fragmentation or detachment”. Further, the “Cleavage by endo-proteinase Glu-C” value in data set [1] was “cleavage of peptide sequence between amino acids Glu(36) and Val(37)”. Further, the “Polarity from HPLC retention time” value in data set [2] is on record as “very polar”. In addition, the “Development of neurological symptoms and inflammatory demyelinating spinal cord lesions” value in data set [7] (EAE models, peptide conjugated to oxidized mannan via (KG)5, earlier study, no reference given) was “inhibit”. For the same substance, in data set [7] (setting [9]), the “Axons in spinal cord lesions” value is “preserved”, the CNS inflammation result is listed as “reduced”, the “Effect on experimental autoimmune encephalomyelitis” value is reported as “reversed” and the Peripheral myeloid response entry was “inducing a peripheral type 2 myeloid response”. In data set [7] (setting [10]), the “Antigen-specific T-cell proliferation” value is on record as “reduced”; the “Th1, Th17, and regulatory T-cell differentiation or T-cell apoptosis” value was “no alterations”. In addition, the “Protection in EAE” value in data set [7] (therapeutic and prophylactic models, 19 (no reference at the sentence; wording matches ref 30)) is “showed protection”. The “Activation levels of CD4 T cells” value in data set [8] (co-cultures with tolerogenic DCs presenting the conjugate, PBMCs from RR-MS patients and healthy controls) is given as “Inhibition of activation”. Also, the T-cell tolerance entry in data set [8] (tolerogenic DCs loaded with the conjugate, generated in vitro) is given as “induce T-cell tolerance”.
